Laboratory results from US9771333B2, “Quinazoline derivatives as TAM family kinase inhibitors” (SIGNALCHEM LIFESCIENCES CORP., priority 2013, dated 2017).

How the values were obtained:
Assay type in all cases: biochemical
human Axl = target: T1, human Axl (Homo sapiens, UniProt P30530); assay: Kinase enzymatic activity assay (33P-radiolabeled phosphate transfer), Axl; details: recombinant human Axl (473-end), poly(4:1 glu:tyr) substrate, 30 minutes
T1 construct: GST (N); made in house; host or cells: Sf9 insect cells (baculovirus)
T1 sequence (P30530 473-894 limits assumed): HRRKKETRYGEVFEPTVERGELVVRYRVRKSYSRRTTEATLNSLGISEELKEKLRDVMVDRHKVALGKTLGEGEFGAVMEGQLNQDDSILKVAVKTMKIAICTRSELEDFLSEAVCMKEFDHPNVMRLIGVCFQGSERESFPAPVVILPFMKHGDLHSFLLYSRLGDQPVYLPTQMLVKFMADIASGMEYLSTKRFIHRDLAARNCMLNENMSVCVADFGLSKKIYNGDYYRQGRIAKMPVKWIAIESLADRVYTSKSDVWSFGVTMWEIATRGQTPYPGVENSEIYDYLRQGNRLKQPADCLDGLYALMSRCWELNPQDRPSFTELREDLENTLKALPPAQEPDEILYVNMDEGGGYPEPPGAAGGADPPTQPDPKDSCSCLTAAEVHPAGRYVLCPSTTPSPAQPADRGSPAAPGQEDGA
From the text: (§1) The identification of compounds of the invention as Tyro3, Axl or Mer inhibitors was readily accomplished using the recombinant human Tyro3, Axl and Mer proteins and employing the ^33P-radiolabeled phosphate transfer assay for which the procedure is known to someone skilled in the art or as described in Example 9.
(§2) Recombinant human Tyro3 (455-end, the gene accession number NM_006293), human Axl (473-end, the gene accession number NM_021913) and human Mer (578-872, the gene accession number NM_006343) were independently expressed by baculovirus in Sf9 insect cells using an N-terminal GST tag. The recombinant proteins were stored at −70° C. in a medium containing 50 mM Tris-HCl, pH 7.5, 150 mM NaCl, 10 mM glutathione, 0.1 mM EDTA, 0.25 mM DTT, 0.1 mM PMSF and 25% glycerol. The recombinant proteins were aliquoted into smaller quantities after centrifugation to avoid repeated handling and multiple freeze/thaw cycles for the most favorable performance.
(§3) Kinase Assay Buffer: This buffer solution consisted of the following components: 25 mM MOPS, pH 7.2, 12.5 mM β-glycerol-phosphate, 25 mM MgCl2, 5 mM EGTA, 2 mM EDTA and DTT 0.25 mM which was added prior to use.
(§4) Kinase Dilution Buffer: Kinase Assay Buffer was diluted at a 1:4 ratio (5× dilution) with distilled water.
(§5) [^33P]-ATP assay cocktail: In a designated radioactive working area, a 250 μM [^33P]-ATP assay cocktail was prepared by the addition of the following components: 150 μL of 10 mM ATP stock solution, 100 μL [^33P]-ATP (1 mci/100 μL), and 5.75 mL of kinase assay buffer. This solution was stored in 1 mL aliquots at −20° C.
(§6) ATP stock solution (10 mM): The ATP stock solution was prepared by dissolving 55 mg of ATP in 10 mL of kinase assay buffer. It was stored in 200 μL aliquots at −20° C.
(§7) Active Kinase Stock Solution: The active recombinant kinase protein (0.1 μg/μL) was diluted with Kinase Dilution Buffer and the activity was assayed using a serial dilution method. The specific activity is expressed in nmoL/min/mg.
(§8) Substrates: poly(4:1 glu:tyr) is the substrate used for each kinase Tyro3, Axl and Mer: The peptide substrate was dissolved in water to give the final concentration of 1 mg/mL.
(§9) Test compound solution: Test compound was dissolved in DMSO to obtain a 10 mM solution. The assay solution was prepared by adding 5 μL of this solution to […] of 10% DMSO/water to obtain the final concentration of 50 μM.
(§10) The enzymatic activity of all three kinases was determined as follows. Using a 96-well plate, the wells were divided into three categories: Blank wells, […] and Test wells. In Test wells, 5 μL of the test compound solution and 5 μL of the substrate solution were added. In Control wells, 5 μL of 10% DMSO/water and 5 μL of the substrate solution were added. In Blank wells, 10 μL of 10% DMSO/water was added. To each well was added 10 μL of Active Kinase Stock Solution to make up the volume in each well to 20 μL. All test samples, controls and blanks were run in duplicate. The reaction was initiated by the addition of 5 μL of [^33P]-ATP assay cocktail, bringing the final volume up to 25 μL in every well. The mixture was incubated at room temperature for 30 minutes. The reaction was terminated by transferring 10 μL of the reaction mixture into a Millipore MultiScreen filter plate (cat. number MSPHN6B50). The filter plate was washed in a 1% phosphoric acid solution with constant gentle shaking for 15 minutes and this step was repeated once. After the plate was dried in air, scintillation fluid was added to each well and the radioactivity in each well in CPM was counted by a Microbeta TriLux. The corrected CPM in each test well was determined by subtracting the average value of Blank well values. Percentage of inhibition of the kinase enzymatic activity by the test compound was determined using the following formula: […]
(§11) The IC50 values were determined in a similar way following a serial dilution of the test compound. […]

human Tyro3 = target: T2, human Tyro3 (Homo sapiens, UniProt Q06418); assay: Kinase enzymatic activity assay (33P-radiolabeled phosphate transfer), Tyro3; details: recombinant human Tyro3 (455-end), poly(4:1 glu:tyr) substrate, 30 minutes
T2 construct: GST (N); made in house; host or cells: Sf9 insect cells (baculovirus)
T2 sequence (Q06418 455-890 limits assumed): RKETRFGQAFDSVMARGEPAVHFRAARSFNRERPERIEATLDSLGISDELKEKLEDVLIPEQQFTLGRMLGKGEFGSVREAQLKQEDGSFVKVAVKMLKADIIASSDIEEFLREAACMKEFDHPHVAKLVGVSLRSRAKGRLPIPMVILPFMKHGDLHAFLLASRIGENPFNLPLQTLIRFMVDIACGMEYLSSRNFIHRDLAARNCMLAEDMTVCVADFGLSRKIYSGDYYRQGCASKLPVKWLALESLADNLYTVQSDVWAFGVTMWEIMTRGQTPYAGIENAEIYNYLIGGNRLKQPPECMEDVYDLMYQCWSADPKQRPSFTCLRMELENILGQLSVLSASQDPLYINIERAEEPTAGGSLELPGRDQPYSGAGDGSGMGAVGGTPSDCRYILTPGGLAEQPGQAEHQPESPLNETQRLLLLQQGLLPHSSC
From the text: as §1, §2, §3, §4, §5, §6, §7, §8, §9, §10, §11

human Mer = target: T3, human Mer (Homo sapiens, UniProt Q12866); assay: Kinase enzymatic activity assay (33P-radiolabeled phosphate transfer), Mer; details: recombinant human Mer (578-872), poly(4:1 glu:tyr) substrate, 30 minutes
T3 construct: GST (N); made in house; host or cells: Sf9 insect cells (baculovirus)
T3 sequence (Q12866 578-872): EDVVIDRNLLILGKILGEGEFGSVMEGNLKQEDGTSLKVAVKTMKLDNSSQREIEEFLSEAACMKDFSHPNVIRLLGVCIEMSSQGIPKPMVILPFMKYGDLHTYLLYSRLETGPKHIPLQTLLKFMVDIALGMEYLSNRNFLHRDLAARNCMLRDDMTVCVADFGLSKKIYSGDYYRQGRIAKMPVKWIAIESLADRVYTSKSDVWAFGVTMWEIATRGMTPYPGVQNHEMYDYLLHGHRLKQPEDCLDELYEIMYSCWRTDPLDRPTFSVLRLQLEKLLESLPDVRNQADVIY
From the text: as §1, §2, §3, §4, §5, §6, §7, §8, §9, §10, §11

IC50 (human Axl) [nM] | IC50 (human Tyro3) [nM] | IC50 (human Mer) [nM] | SMILES
1000 to 10000 | < 500 | 500 to 1000 | COc1cc(OCC2CCN(C)CC2)cc2ncnc(Oc3ccc(F)cc3Cl)c12 [Example 2.34, 4-(2-chloro-4-fluorophenoxy)-5-methoxy-7-((1-methylpiperidin-4-yl)methoxy)quinazoline]
1000 to 10000 | > 10000 | 1000 to 10000 | Cc1cc(Nc2ncnc3cc(OCCCN4CCOCC4)cc(OC4CCOCC4)c23)on1 [Example 2.35, 3-methyl-N-(7-(3-morpholinopropoxy)-5-((tetrahydro-2H-pyran-4-yl)oxy)quinazolin-4-yl)isoxazol-5-amine]
1000 to 10000 | > 10000 | 1000 to 10000 | Cc1nnc(Nc2ncnc3cc(OCC4CCN(C)CC4)cc(OC4CCOCC4)c23)s1 [Example 2.36, 5-methyl-N-(7-((1-methylpiperidin-4-yl)methoxy)-5-((tetrahydro-2H-pyran-4-yl)oxy)quinazolin-4-yl)-1,3,4-thiadiazol-2-amine]
1000 to 10000 | > 10000 | > 10000 | CN1CCC(COc2cc(OC3CCOCC3)c3c(Nc4nnc(C(F)(F)F)s4)ncnc3c2)CC1 [Example 2.37, N-(7-((1-methylpiperidin-4-yl)methoxy)-5-((tetrahydro-2H-pyran-4-yl)oxy)quinazolin-4-yl)-5-(trifluoromethyl)-1,3,4-thiadiazol-2-amine]
< 500 | 1000 to 10000 | 500 to 1000 | CN1CCC(COc2cc(OC3CCOCC3)c3c(Nc4nncs4)ncnc3c2)CC1 [Example 2.38, N-(7-((1-methylpiperidin-4-yl)methoxy)-5-((tetrahydro-2H-pyran-4-yl)oxy)quinazolin-4-yl)-1,3,4-thiadiazol-2-amine]
< 500 | 500 to 1000 | < 500 | CN1CCC(COc2cc(OC3CCOCC3)c3c(Nc4nccs4)ncnc3c2)CC1 [Example 2.39, N-(7-((1-methylpiperidin-4-yl)methoxy)-5-((tetrahydro-2H-pyran-4-yl)oxy)quinazolin-4-yl)thiazol-2-amine]
< 500 | 1000 to 10000 | 1000 to 10000 | Cc1cc(Nc2ncnc3cc(OCC4CCN(C)CC4)cc(OC4CCOCC4)c23)on1 [Example 2.40, 3-methyl-N-(7-((1-methylpiperidin-4-yl)methoxy)-5-((tetrahydro-2H-pyran-4-yl)oxy)quinazolin-4-yl)isoxazol-5-amine]
1000 to 10000 | > 10000 | > 10000 | COCCN1CCN(c2cc(OC3CCOCC3)c3c(Nc4nc(C(F)(F)F)cs4)ncnc3c2)CC1 [Example 2.41, N-(7-(4-(2-methoxyethyl)piperazin-1-yl)-5-((tetrahydro-2H-pyran-4-yl)oxy)quinazolin-4-yl)-4-(trifluoromethyl)thiazol-2-amine]
< 500 | 1000 to 10000 | < 500 | Cc1csc(Nc2ncnc3cc(OCC4CCN(C)CC4)cc(OC4CCOCC4)c23)n1 [Example 2.42, 4-methyl-N-(7-((1-methylpiperidin-4-yl)methoxy)-5-((tetrahydro-2H-pyran-4-yl)oxy)quinazolin-4-yl)thiazol-2-amine]
< 500 | 1000 to 10000 | < 500 | Cc1cnc(Nc2ncnc3cc(OCC4CCN(C)CC4)cc(OC4CCOCC4)c23)s1 [Example 2.43, 5-methyl-N-(7-((1-methylpiperidin-4-yl)methoxy)-5-((tetrahydro-2H-pyran-4-yl)oxy)quinazolin-4-yl)thiazol-2-amine]
< 500 | > 10000 | 1000 to 10000 | CN1CCC(CCOc2cc(OC3CCOCC3)c3c(Nc4nc(C(F)(F)F)cs4)ncnc3c2)CC1 [Example 2.45, N-(7-(2-(1-methylpiperidin-4-yl)ethoxy)-5-((tetrahydro-2H-pyran-4-yl)oxy)quinazolin-4-yl)-4-(trifluoromethyl)thiazol-2-amine]
< 500 | 1000 to 10000 | 1000 to 10000 | CN1CCC(COc2cc(OC3CCOCC3)c3c(Sc4nncs4)ncnc3c2)CC1 [Example 2.47, 2-((7-((1-methylpiperidin-4-yl)methoxy)-5-((tetrahydro-2H-pyran-4-yl)oxy)quinazolin-4-yl)thio)-1,3,4-thiadiazole]
500 to 1000 | > 10000 | > 10000 | Cc1nnc(Sc2ncnc3cc(OCC4CCN(C)CC4)cc(OC4CCOCC4)c23)s1 [Example 2.48, 2-methyl-5-((7-((1-methylpiperidin-4-yl)methoxy)-5-((tetrahydro-2H-pyran-4-yl)oxy)quinazolin-4-yl)thio)-1,3,4-thiadiazole]
> 10000 | 1000 to 10000 | > 10000 | Cc1nc(Sc2ncnc3cc(OCC4CCN(C)CC4)cc(OC4CCOCC4)c23)oc1C [Example 2.49, 4,5-dimethyl-2-((7-((1-methylpiperidin-4-yl)methoxy)-5-((tetrahydro-2H-pyran-4-yl)oxy)quinazolin-4-yl)thio)oxazole]
500 to 1000 | > 10000 | 1000 to 10000 | CN1CCC(COc2cc(OC3CCOCC3)c3c(Sc4nc(C(F)(F)F)cs4)ncnc3c2)CC1 [Example 2.50, 2-((7-((1-methylpiperidin-4-yl)methoxy)-5-((tetrahydro-2H-pyran-4-yl)oxy)quinazolin-4-yl)thio)-4-(trifluoromethyl)thiazole]
